# Data: ChEMBL document CHEMBL5653615 (J Biol Chem, 2013)
# Key:
# [1] = molecular target: ALK tyrosine kinase receptor (Homo sapiens) (UniProt Q9UM73); assay: Inhibition of human ALK at 500 nM by HotSpot assay relative to control
# [2] = molecular target: Serine/threonine-protein kinase PLK2 (Homo sapiens) (UniProt Q9NYY3); assay: Inhibition of human PLK2 at 1.82 nM by HotSpot assay relative to control
# [3] = molecular target: Phosphorylase b kinase gamma catalytic chain, skeletal muscle/heart isoform (Homo sapiens) (UniProt Q16816); assay: Inhibition of human PHKg1 at 1.82 nM by HotSpot assay relative to control
# [4] = molecular target: RAC-beta serine/threonine-protein kinase (Homo sapiens) (UniProt P31751); assay: Inhibition of human AKT2 at 1.82 nM by HotSpot assay relative to control
# [5] = molecular target: T1, Serine/threonine-protein kinase D1 (Homo sapiens) (UniProt Q15139); assay: Inhibition of human PRKD1 at 1.82 nM by HotSpot assay relative to control
# T1 sequence (whole entry): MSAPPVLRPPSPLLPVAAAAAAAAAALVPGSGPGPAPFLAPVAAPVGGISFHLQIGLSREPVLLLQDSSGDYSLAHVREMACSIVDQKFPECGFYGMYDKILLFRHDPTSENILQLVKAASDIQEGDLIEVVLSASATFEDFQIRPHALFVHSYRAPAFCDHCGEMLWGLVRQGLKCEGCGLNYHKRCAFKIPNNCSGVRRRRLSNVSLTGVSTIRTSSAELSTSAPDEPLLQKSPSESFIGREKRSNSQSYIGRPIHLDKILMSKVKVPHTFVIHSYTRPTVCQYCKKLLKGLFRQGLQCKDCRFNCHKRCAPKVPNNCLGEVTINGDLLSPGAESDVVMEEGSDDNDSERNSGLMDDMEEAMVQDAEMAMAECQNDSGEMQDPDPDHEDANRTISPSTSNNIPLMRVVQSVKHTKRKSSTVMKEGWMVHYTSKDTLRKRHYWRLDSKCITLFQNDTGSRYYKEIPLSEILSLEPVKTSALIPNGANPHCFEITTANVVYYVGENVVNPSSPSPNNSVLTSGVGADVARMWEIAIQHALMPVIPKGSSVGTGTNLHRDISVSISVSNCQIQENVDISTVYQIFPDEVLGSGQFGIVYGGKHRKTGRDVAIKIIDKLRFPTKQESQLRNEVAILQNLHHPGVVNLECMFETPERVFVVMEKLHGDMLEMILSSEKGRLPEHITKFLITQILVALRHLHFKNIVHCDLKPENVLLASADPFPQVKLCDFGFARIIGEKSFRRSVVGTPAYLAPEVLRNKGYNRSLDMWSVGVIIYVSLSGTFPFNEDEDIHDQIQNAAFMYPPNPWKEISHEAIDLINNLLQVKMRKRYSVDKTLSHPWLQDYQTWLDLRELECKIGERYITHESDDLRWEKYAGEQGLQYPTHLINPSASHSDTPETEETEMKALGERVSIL
# [6] = molecular target: Ribosomal protein S6 kinase alpha-5 (Homo sapiens) (UniProt O75582); assay: Inhibition of human RPS6KA5 at 1.82 nM by HotSpot assay relative to control
# [7] = molecular target: Leucine-rich repeat serine/threonine-protein kinase 2 (Homo sapiens) (UniProt Q5S007); assay: Inhibition of human LRRK2 at 1.82 nM by HotSpot assay relative to control
# [8] = molecular target: Platelet-derived growth factor receptor alpha (Homo sapiens) (UniProt P16234); assay: Inhibition of human PDGFRa at 1.82 nM by HotSpot assay relative to control
# [9] = molecular target: T2, Serine/threonine-protein kinase NLK (Homo sapiens) (UniProt Q9UBE8); assay: Inhibition of human NLK at 1.82 nM by HotSpot assay relative to control
# T2 sequence (whole entry): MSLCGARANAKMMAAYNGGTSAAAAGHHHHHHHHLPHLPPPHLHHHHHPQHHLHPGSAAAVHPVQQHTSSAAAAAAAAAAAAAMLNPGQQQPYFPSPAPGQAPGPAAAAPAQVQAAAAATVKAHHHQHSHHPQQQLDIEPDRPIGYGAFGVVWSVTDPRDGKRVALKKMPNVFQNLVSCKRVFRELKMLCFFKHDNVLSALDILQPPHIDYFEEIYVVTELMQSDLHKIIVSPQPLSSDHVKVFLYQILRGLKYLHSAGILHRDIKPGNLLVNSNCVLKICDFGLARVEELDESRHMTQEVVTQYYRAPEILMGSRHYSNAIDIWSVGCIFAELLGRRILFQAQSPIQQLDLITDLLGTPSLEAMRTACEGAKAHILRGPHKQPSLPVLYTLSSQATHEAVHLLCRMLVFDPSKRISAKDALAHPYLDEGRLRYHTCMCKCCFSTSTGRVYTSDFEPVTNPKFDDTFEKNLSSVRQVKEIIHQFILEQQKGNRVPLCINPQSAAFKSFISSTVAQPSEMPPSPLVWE
# [10] = molecular target: Receptor-type tyrosine-protein kinase FLT3 (Homo sapiens) (UniProt P36888); assay: Inhibition of human FLT3 at 18.6 nM by HotSpot assay relative to control
# [11] = molecular target: Calcium/calmodulin-dependent protein kinase type 1G (Homo sapiens) (UniProt Q96NX5); assay: Inhibition of human CAMK1g at 18.6 nM by HotSpot assay relative to control
# [12] = molecular target: Mitogen-activated protein kinase kinase kinase 11 (Homo sapiens) (UniProt Q16584); assay: Inhibition of human MAP3K11 at 18.6 nM by HotSpot assay relative to control
# [13] = molecular target: Ribosomal protein S6 kinase alpha-2 (Homo sapiens) (UniProt Q15349); assay: Inhibition of human RSK3 at 18.6 nM by HotSpot assay relative to control
# [14] = molecular target: Serine/threonine-protein kinase N2 (Homo sapiens) (UniProt Q16513); assay: Inhibition of human PRK2 at 18.6 nM by HotSpot assay relative to control
# [15] = molecular target: Serine/threonine-protein kinase pim-1 (Homo sapiens) (UniProt P11309); assay: Inhibition of human PIM1 at 18.6 nM by HotSpot assay relative to control
# [16] = molecular target: Ephrin type-A receptor 4 (Homo sapiens) (UniProt P54764); assay: Inhibition of human EPHA4 at 18.6 nM by HotSpot assay relative to control
# [17] = molecular target: Casein kinase I isoform epsilon (Homo sapiens) (UniProt P49674); assay: Inhibition of human CK1epsilon at 18.6 nM by HotSpot assay relative to control
# [18] = molecular target: Serine/threonine-protein kinase PAK 2 (Homo sapiens) (UniProt Q13177); assay: Inhibition of human PAK2 at 18.6 nM by HotSpot assay relative to control
# Sequence of Serine/threonine-protein kinase PAK 2 (Homo sapiens) (Q13177 whole entry): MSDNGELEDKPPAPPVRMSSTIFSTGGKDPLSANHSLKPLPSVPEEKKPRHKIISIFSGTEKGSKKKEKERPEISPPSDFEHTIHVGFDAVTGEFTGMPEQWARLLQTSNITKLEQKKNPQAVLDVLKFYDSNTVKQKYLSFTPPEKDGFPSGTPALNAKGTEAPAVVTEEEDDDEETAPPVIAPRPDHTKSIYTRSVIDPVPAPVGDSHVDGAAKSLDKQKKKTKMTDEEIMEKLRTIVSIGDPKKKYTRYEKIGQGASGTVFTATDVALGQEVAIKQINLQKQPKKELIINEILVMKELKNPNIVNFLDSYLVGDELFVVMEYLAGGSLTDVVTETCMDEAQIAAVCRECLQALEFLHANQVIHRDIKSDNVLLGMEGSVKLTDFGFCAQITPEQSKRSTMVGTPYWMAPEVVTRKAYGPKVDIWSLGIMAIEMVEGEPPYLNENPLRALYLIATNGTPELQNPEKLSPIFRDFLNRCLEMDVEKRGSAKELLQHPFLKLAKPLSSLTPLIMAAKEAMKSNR
# Sequence of Ribosomal protein S6 kinase alpha-2 (Homo sapiens) (Q15349 whole entry): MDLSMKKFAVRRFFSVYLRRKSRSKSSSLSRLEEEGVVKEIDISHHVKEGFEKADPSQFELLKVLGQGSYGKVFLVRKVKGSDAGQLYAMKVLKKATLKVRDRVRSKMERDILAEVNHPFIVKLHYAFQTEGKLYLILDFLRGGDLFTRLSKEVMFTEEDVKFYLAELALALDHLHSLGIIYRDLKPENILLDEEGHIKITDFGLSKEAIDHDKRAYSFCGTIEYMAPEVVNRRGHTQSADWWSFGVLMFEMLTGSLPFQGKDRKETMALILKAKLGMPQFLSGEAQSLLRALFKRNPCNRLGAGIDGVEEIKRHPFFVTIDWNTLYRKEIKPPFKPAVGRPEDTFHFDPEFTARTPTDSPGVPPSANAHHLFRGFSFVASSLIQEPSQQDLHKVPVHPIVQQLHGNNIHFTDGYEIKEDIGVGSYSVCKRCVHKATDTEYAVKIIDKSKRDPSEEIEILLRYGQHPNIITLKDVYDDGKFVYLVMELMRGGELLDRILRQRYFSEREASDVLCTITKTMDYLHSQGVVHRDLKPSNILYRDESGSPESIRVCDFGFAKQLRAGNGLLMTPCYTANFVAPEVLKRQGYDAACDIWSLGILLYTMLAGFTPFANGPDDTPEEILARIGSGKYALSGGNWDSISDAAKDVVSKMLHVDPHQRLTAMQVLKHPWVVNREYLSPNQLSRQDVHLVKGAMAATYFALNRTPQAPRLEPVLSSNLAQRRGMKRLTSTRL
# Sequence of Phosphorylase b kinase gamma catalytic chain, skeletal muscle/heart isoform (Homo sapiens) (Q16816 whole entry, looked up, canonical isoform): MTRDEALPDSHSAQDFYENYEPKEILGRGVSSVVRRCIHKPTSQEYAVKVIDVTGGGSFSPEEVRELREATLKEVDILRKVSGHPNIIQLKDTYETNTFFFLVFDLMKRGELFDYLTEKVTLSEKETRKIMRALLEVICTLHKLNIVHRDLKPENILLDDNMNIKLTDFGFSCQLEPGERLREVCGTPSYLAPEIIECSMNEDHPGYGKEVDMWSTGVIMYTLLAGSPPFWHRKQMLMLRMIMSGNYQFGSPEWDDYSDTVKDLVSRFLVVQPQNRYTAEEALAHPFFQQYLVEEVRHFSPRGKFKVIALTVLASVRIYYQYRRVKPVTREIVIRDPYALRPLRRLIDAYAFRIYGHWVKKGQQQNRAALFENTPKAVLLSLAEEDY
# Sequence of Serine/threonine-protein kinase pim-1 (Homo sapiens) (P11309 whole entry, looked up): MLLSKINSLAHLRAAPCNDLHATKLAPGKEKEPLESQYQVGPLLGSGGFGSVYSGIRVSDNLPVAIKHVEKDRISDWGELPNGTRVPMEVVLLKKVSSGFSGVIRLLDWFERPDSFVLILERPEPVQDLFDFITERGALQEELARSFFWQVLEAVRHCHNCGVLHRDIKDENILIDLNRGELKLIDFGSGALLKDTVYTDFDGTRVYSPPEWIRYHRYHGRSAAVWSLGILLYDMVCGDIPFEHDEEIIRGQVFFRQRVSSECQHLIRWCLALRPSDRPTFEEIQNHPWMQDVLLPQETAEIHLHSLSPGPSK
# Sequence of Calcium/calmodulin-dependent protein kinase type 1G (Homo sapiens) (Q96NX5 whole entry): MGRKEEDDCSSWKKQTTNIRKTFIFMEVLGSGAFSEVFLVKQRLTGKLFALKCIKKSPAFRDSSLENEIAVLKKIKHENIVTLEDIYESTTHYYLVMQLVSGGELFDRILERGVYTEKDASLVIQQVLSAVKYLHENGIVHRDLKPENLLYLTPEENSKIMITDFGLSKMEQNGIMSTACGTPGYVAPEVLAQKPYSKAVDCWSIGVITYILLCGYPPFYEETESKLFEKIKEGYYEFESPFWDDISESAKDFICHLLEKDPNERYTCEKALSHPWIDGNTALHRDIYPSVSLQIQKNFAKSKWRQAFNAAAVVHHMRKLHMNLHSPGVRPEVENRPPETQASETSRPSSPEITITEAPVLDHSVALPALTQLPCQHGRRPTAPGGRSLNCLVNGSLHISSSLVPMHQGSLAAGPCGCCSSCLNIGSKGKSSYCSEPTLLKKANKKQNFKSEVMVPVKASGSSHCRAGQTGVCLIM
# Sequence of Receptor-type tyrosine-protein kinase FLT3 (Homo sapiens) (P36888 whole entry): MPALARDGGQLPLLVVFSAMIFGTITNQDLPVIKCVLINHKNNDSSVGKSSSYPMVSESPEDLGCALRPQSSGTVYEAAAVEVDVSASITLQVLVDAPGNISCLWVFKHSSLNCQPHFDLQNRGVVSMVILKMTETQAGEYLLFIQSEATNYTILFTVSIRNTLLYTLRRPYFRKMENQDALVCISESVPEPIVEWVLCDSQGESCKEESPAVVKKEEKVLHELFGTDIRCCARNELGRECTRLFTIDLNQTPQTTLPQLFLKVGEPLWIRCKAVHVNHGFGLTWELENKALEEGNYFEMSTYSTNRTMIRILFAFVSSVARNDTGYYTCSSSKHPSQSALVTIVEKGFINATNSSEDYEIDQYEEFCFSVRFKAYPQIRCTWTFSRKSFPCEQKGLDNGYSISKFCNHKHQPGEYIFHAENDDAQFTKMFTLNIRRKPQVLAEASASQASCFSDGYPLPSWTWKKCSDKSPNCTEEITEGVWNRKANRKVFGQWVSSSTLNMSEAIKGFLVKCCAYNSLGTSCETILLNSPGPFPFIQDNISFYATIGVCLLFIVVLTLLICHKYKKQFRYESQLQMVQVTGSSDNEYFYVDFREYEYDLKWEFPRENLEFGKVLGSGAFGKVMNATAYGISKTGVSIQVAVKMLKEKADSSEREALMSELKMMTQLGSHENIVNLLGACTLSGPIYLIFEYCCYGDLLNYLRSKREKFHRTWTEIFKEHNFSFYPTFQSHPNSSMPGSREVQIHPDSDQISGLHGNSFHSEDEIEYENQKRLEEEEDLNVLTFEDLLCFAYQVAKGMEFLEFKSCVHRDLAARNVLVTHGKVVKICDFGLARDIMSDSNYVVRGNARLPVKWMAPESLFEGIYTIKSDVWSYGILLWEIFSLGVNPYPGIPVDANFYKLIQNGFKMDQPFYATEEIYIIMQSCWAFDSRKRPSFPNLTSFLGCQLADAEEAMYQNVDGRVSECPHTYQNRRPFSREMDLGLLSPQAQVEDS
# Sequence of Serine/threonine-protein kinase PLK2 (Homo sapiens) (Q9NYY3 whole entry, looked up, canonical isoform): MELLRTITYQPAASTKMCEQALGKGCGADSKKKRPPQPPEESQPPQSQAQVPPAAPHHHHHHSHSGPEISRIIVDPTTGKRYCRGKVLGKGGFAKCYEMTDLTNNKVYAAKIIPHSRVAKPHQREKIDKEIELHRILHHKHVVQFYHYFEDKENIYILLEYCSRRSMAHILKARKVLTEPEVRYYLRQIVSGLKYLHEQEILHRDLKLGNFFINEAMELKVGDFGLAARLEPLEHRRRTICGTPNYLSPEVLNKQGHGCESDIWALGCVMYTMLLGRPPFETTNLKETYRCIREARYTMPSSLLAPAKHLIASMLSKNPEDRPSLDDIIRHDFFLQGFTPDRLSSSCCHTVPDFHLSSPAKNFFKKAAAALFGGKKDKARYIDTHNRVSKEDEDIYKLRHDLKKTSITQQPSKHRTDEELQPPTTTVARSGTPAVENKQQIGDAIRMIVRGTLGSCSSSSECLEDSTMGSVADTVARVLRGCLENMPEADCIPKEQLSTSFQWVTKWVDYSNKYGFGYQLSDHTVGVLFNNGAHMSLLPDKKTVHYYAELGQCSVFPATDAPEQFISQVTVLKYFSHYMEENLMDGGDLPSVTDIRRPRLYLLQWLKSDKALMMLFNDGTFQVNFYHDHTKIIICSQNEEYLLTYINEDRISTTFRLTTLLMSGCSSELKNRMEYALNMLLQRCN
# Sequence of Ribosomal protein S6 kinase alpha-5 (Homo sapiens) (O75582 whole entry, looked up): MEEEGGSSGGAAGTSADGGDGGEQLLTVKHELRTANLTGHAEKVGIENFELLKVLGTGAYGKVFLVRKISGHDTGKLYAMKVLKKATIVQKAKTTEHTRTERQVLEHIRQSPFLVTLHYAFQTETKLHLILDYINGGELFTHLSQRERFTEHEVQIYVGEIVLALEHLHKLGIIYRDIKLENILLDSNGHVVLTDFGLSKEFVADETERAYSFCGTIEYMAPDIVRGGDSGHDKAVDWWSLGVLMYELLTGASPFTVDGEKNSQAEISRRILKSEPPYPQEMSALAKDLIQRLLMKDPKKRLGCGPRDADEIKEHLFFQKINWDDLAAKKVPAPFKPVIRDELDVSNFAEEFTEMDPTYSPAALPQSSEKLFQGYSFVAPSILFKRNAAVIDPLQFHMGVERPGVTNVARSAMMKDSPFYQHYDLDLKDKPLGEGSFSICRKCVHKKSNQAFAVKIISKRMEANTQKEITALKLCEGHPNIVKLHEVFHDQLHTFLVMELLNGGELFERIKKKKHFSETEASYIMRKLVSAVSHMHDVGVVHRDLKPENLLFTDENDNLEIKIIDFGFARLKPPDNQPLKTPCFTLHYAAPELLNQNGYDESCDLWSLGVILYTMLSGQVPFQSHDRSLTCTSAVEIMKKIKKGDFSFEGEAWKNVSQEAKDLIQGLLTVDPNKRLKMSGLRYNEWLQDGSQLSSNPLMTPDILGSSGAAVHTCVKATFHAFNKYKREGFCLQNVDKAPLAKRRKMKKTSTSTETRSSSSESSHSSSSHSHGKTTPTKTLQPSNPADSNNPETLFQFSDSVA
smiles,measurement,setting,value
Nc1n[nH]c2nnc(-c3c(-c4ccccc4)nn4ccccc34)cc12,inhibition,[1],-7.89%
C[C@@]1(C(=O)Nc2ccc(F)nc2)CCCN1c1nc(Nc2cc(C3CC3)n[nH]2)c2cccn2n1,inhibition,[2],1.2%
same,inhibition,[3],2.68%
same,inhibition,[4],-0.4%
same,inhibition,[5],-5.1%
same,inhibition,[6],-3.72%
same,inhibition,[7],-6.63%
same,inhibition,[8],0.58%
same,inhibition,[9],2.48%
C[C@]1(O)C[C@@H](c2nc(-c3ccc4ccc(-c5ccccc5)nc4c3)c3c(N)nccn32)C1,inhibition,[10],-4.3%
same,inhibition,[11],6.69%
same,inhibition,[12],0.31%
same,inhibition,[13],-2.23%
same,inhibition,[14],1.32%
same,inhibition,[15],-3.58%
same,inhibition,[16],-8.39%
same,inhibition,[17],0.64%
same,inhibition,[18],-7.87%
